≈ marks a conversion by molar mass, not a printed value. Where two headings read alike, the source gives them in different places.
Key:
Assay in all cases: MIC, broth microdilution
[1] = system: E. coli GC 2233; details: Escherichia coli
[2] = system: E. coli GC 2270; details: Escherichia coli
[3] = system: E. coli GC 2271; details: Escherichia coli
[4] = system: E. coli GC 2272; details: Escherichia coli
[5] = system: E. coli GC 4560; details: Escherichia coli
[6] = system: E. coli GC 6465; details: Escherichia coli
[7] = system: E. coli GC 3226; details: Escherichia coli
[8] = system: E. coli GC 2203; details: Escherichia coli
[9] = system: E. coli GC 1073; details: Escherichia coli
[10] = system: P. aeruginosa GC 2214; details: Pseudomonas aeruginosa
[11] = system: S. aureus GC 1131; details: Staphylococcus aureus
[12] = system: S. aureus GC 6467; details: Staphylococcus aureus
[13] = system: S. aureus GC 1079; details: Staphylococcus aureus
[14] = system: S. aureus GC 6335; details: Staphylococcus aureus
[15] = system: S. aureus GC 6469; details: Staphylococcus aureus
[16] = system: S. epidermidis GC 4935; details: Staphylococcus epidermidis
[17] = system: E. faecalis GC 2265; details: Enterococcus faecalis
[18] = system: E. faecalis GC 2267; details: Enterococcus faecalis
[19] = system: E. faecium GC 2243; details: Enterococcus faecium
[20] = system: c. albicans GC 3066

MIC ([1]; GC2233, read-out: MINIMAL INHIBITORY CONCENTRATION MIC, Human Serum): 8 µg/mL (≈ 10.2 µM)
MIC ([1]; GC2233, read-out: MINIMAL INHIBITORY CONCENTRATION MIC, Mouse Serum): 0.5 µg/mL (≈ 0.64 µM)
MIC ([1]; GC2233, read-out: MINIMAL INHIBITORY CONCENTRATION MIC, Water): 8 µg/mL (≈ 10.2 µM)
MIC ([2]; GC2270, read-out: MINIMAL INHIBITORY CONCENTRATION MIC, Human Serum): 4 µg/mL (≈ 5.12 µM)
MIC ([2]; GC2270, read-out: MINIMAL INHIBITORY CONCENTRATION MIC, Mouse Serum): 0.5 µg/mL (≈ 0.64 µM)
MIC ([2]; GC2270, read-out: MINIMAL INHIBITORY CONCENTRATION MIC, Water): 4 µg/mL (≈ 5.12 µM)
MIC ([3]; GC2271, read-out: MINIMAL INHIBITORY CONCENTRATION MIC, Human Serum): 4 µg/mL (≈ 5.12 µM)
MIC ([3]; GC2271, read-out: MINIMAL INHIBITORY CONCENTRATION MIC, Mouse Serum): 0.5 µg/mL (≈ 0.64 µM)
MIC ([3]; GC2271, read-out: MINIMAL INHIBITORY CONCENTRATION MIC, Water): 4 µg/mL (≈ 5.12 µM)
MIC ([4]; GC2272, read-out: MINIMAL INHIBITORY CONCENTRATION MIC, Human Serum): 4 µg/mL (≈ 5.12 µM)
MIC ([4]; GC2272, read-out: MINIMAL INHIBITORY CONCENTRATION MIC, Mouse Serum): 0.5 µg/mL (≈ 0.64 µM)
MIC ([4]; GC2272, read-out: MINIMAL INHIBITORY CONCENTRATION MIC, Water): 4 µg/mL (≈ 5.12 µM)
MIC ([5]; GC4560, read-out: MINIMAL INHIBITORY CONCENTRATION MIC, Human Serum): 2 µg/mL (≈ 2.56 µM)
MIC ([5]; GC4560, read-out: MINIMAL INHIBITORY CONCENTRATION MIC, Mouse Serum): 0.25 µg/mL (≈ 0.32 µM)
MIC ([5]; GC4560, read-out: MINIMAL INHIBITORY CONCENTRATION MIC, Water): 2 µg/mL (≈ 2.56 µM)
MIC ([6]; GC6465, read-out: MINIMAL INHIBITORY CONCENTRATION MIC, Human Serum): 16 µg/mL (≈ 20.5 µM)
MIC ([6]; GC6465, read-out: MINIMAL INHIBITORY CONCENTRATION MIC, Mouse Serum): 2 µg/mL (≈ 2.56 µM)
MIC ([6]; GC6465, read-out: MINIMAL INHIBITORY CONCENTRATION MIC, Water): 64 µg/mL (≈ 81.9 µM)
MIC ([7]; GC3226, read-out: MINIMAL INHIBITORY CONCENTRATION MIC, Human Serum): 16 µg/mL (≈ 20.5 µM)
MIC ([7]; GC3226, read-out: MINIMAL INHIBITORY CONCENTRATION MIC, Mouse Serum): 1 µg/mL (≈ 1.28 µM)
MIC ([7]; GC3226, read-out: MINIMAL INHIBITORY CONCENTRATION MIC, Water): 16 µg/mL (≈ 20.5 µM)
MIC ([8]; GC2203, read-out: MINIMAL INHIBITORY CONCENTRATION MIC, Human Serum): 8 µg/mL (≈ 10.2 µM)
MIC ([8]; GC2203, read-out: MINIMAL INHIBITORY CONCENTRATION MIC, Mouse Serum): 0.5 µg/mL (≈ 0.64 µM)
MIC ([8]; GC2203, read-out: MINIMAL INHIBITORY CONCENTRATION MIC, Water): 8 µg/mL (≈ 10.2 µM)
MIC ([9]; GC1073, read-out: MINIMAL INHIBITORY CONCENTRATION MIC, Human Serum): 8 µg/mL (≈ 10.2 µM)
MIC ([9]; GC1073, read-out: MINIMAL INHIBITORY CONCENTRATION MIC, Mouse Serum): 1 µg/mL (≈ 1.28 µM)
MIC ([9]; GC1073, read-out: MINIMAL INHIBITORY CONCENTRATION MIC, Water): 4 µg/mL (≈ 5.12 µM)
MIC ([10]; GC2214, read-out: MINIMAL INHIBITORY CONCENTRATION MIC, Human Serum): > 64 µg/mL
MIC ([10]; GC2214, read-out: MINIMAL INHIBITORY CONCENTRATION MIC, Mouse Serum): 64 µg/mL (≈ 81.9 µM)
MIC ([10]; GC2214, read-out: MINIMAL INHIBITORY CONCENTRATION MIC, Water): > 64 µg/mL
MIC ([11]; GC1131, read-out: MINIMAL INHIBITORY CONCENTRATION MIC, Human Serum): 1 µg/mL (≈ 1.28 µM)
MIC ([11]; GC1131, read-out: MINIMAL INHIBITORY CONCENTRATION MIC, Mouse Serum): 0.5 µg/mL (≈ 0.64 µM)
MIC ([11]; GC1131, read-out: MINIMAL INHIBITORY CONCENTRATION MIC, Water): 2 µg/mL (≈ 2.56 µM)
MIC ([12]; GC6467, read-out: MINIMAL INHIBITORY CONCENTRATION MIC, Human Serum): 4 µg/mL (≈ 5.12 µM)
MIC ([12]; GC6467, read-out: MINIMAL INHIBITORY CONCENTRATION MIC, Mouse Serum): 0.5 µg/mL (≈ 0.64 µM)
MIC ([12]; GC6467, read-out: MINIMAL INHIBITORY CONCENTRATION MIC, Water): 4 µg/mL (≈ 5.12 µM)
MIC ([13]; GC1079, read-out: MINIMAL INHIBITORY CONCENTRATION MIC, Human Serum): 1 µg/mL (≈ 1.28 µM)
MIC ([13]; GC1079, read-out: MINIMAL INHIBITORY CONCENTRATION MIC, Mouse Serum): 0.5 µg/mL (≈ 0.64 µM)
MIC ([13]; GC1079, read-out: MINIMAL INHIBITORY CONCENTRATION MIC, Water): 2 µg/mL (≈ 2.56 µM)
MIC ([14]; GC6335, read-out: MINIMAL INHIBITORY CONCENTRATION MIC, Human Serum): 2 µg/mL (≈ 2.56 µM)
MIC ([14]; GC6335, read-out: MINIMAL INHIBITORY CONCENTRATION MIC, Mouse Serum): 1 µg/mL (≈ 1.28 µM)
MIC ([14]; GC6335, read-out: MINIMAL INHIBITORY CONCENTRATION MIC, Water): 4 µg/mL (≈ 5.12 µM)
MIC ([15]; GC6469, read-out: MINIMAL INHIBITORY CONCENTRATION MIC, Human Serum): 2 µg/mL (≈ 2.56 µM)
MIC ([15]; GC6469, read-out: MINIMAL INHIBITORY CONCENTRATION MIC, Mouse Serum): 0.5 µg/mL (≈ 0.64 µM)
MIC ([15]; GC6469, read-out: MINIMAL INHIBITORY CONCENTRATION MIC, Water): 4 µg/mL (≈ 5.12 µM)
MIC ([16]; GC4935, read-out: MINIMAL INHIBITORY CONCENTRATION MIC, Human Serum): 4 µg/mL (≈ 5.12 µM)
MIC ([16]; GC4935, read-out: MINIMAL INHIBITORY CONCENTRATION MIC, Mouse Serum): 1 µg/mL (≈ 1.28 µM)
MIC ([16]; GC4935, read-out: MINIMAL INHIBITORY CONCENTRATION MIC, Water): 4 µg/mL (≈ 5.12 µM)
MIC ([17]; GC2265, read-out: MINIMAL INHIBITORY CONCENTRATION MIC, Human Serum): 4 µg/mL (≈ 5.12 µM)
MIC ([17]; GC2265, read-out: MINIMAL INHIBITORY CONCENTRATION MIC, Mouse Serum): 1 µg/mL (≈ 1.28 µM)
MIC ([17]; GC2265, read-out: MINIMAL INHIBITORY CONCENTRATION MIC, Water): 4 µg/mL (≈ 5.12 µM)
MIC ([18]; GC2267, read-out: MINIMAL INHIBITORY CONCENTRATION MIC, Human Serum): 4 µg/mL (≈ 5.12 µM)
MIC ([18]; GC2267, read-out: MINIMAL INHIBITORY CONCENTRATION MIC, Mouse Serum): 0.5 µg/mL (≈ 0.64 µM)
MIC ([18]; GC2267, read-out: MINIMAL INHIBITORY CONCENTRATION MIC, Water): 4 µg/mL (≈ 5.12 µM)
MIC ([19]; GC2243, read-out: MINIMAL INHIBITORY CONCENTRATION MIC, Human Serum): 1 µg/mL (≈ 1.28 µM)
MIC ([19]; GC2243, read-out: MINIMAL INHIBITORY CONCENTRATION MIC, Mouse Serum): 0.25 µg/mL (≈ 0.32 µM)
MIC ([19]; GC2243, read-out: MINIMAL INHIBITORY CONCENTRATION MIC, Water): 1 µg/mL (≈ 1.28 µM)
MIC ([20]; Candida albicans, GC3066, read-out: MINIMAL INHIBITORY CONCENTRATION MIC): > 64 µg/mL
MINIMAL INHIBITORY CONCENTRATION MIC ([20]; Human Serum): >64 UG/ML
MINIMAL INHIBITORY CONCENTRATION MIC ([20]; Mouse Serum): >64 UG/ML
Structure (SMILES): CN(C)c1cc(NC(=O)CN(C(=O)OCOC(=O)c2ccc(F)cc2)C(C)(C)C)c(O)c2c1C[C@H]1C[C@H]3[C@H](N(C)C)C(O)=C(C(N)=O)C(=O)[C@@]3(O)C(O)=C1C2=O [Example 52, ({[(2-{[(5aR,6aS,7S,10aS)-9-(aminocarbonyl)-4,7-bis(dimethylamino)-1,8,10a,11-tetrahydroxy-10,12-dioxo-5,5a,6,6a,7,10,10a,12-octahydrotetracen-2-yl]amino}-2-oxoethyl)(tert-butyl)amino]carbonyl}oxy)methyl 4-fluorobenzoate]
